{"source": "patent EP1984014B1", "about": "“USE OF TPO PEPTIDE COMPOUNDS AND PHARMACEUTICAL COMPOSITIONS IN THE TREATMENT OF ANEMIA” (Janssen Pharmaceutica NV, priority 2006, dated 2007)", "key": {"[1]": {"tested_on": "mice treated with two rounds of carboplatin", "experiment": "Example 5: two rounds of high-dose carboplatin, hematocrit and survival of mice", "assay_type": "in vivo", "conditions": "of the mice not utilized for hematological evaluation; carboplatin alone versus combination therapy", "description": "(§1) The effects of PEGylated TPO Compound No. 1 on mice treated with carboplatin were observed. For all examples herein, a 10 mg/ml stock solution of PEGylated TPO Compound No. 1 was prepared in sterile saline. For mixing, the preparation was placed on a gyratory shaker for 15min. at 200 rpm. This method was used to dissolve PEGylated TPO Compound No. 1 without foaming. The stock was filtered using a GV Millex (0.22um) filter. Dosing solutions were then prepared from this stock using sterile saline. The stock and dosing solutions were prepared fresh on the day of use.\nGroups of mice were treated with two rounds of the chemotherapeutic agent (carboplatin) ten days apart, with each round consisting of two consecutive days of carboplatin (i.e., 70 mg/kg/day administered on Days -1 & 0 and Days 10 & 11) as delineated below. The dose of carboplatin utilized for these survival studies exceeded the maximal tolerated dose for mice (i.e., 120 mg/kg; administered as 60 mg/kg/day on 2 consecutive days). One hour following the second dose of carboplatin in each round (i.e., Day 0 and 11) mice were treated with PEGylated TPO Compound No. 1 (100ug/kg) or vehicle (sterile saline, SS, preservative-free 0.9% sodium chloride) by IV (bolus) injection as delineated below. The dose was administered on a per weight basis (100 ul/10g body weight). […]"}, "[2]": {"tested_on": "mice treated with carboplatin", "experiment": "Example 2: dosing seven days before and/or 1 hour after carboplatin, hematological parameters in mice", "assay_type": "in vivo, BALB/c mouse", "conditions": "carboplatin alone", "description": "as §1\nThe possibility that PEGylated TPO Compound No. 1 may sensitize bone marrow hematopoietic stem cells of mice to the toxic effects of carboplatin treatment was examined. For this study, a dose of PEGylated TPO Compound No. 1 was administered to the mice seven days prior to the carboplatin dose or immediately after carboplatin treatment. An additional group was treated with PEGylated TPO Compound No. 1 both prior to and after carboplatin administration. The effect of these dosing regimens on hematological parameters was also observed.\nThe groups of mice were treated with either carboplatin or vehicle (Phosphate Buffered Saline, PBS) by ip administration on Days 7 and 8 as delineated below. The optimal dose of carboplatin used to induce thrombocytopenia in the BALB/c mouse strain was previously determined to be a fractionated total dose of 120mg/kg given as two consecutive daily injections (i.e., 2x60mg/kg). Seven days prior to the first carboplatin dose or one (1) hour after the second dose of carboplatin, groups of mice were treated with PEGylated TPO Compound No. 1 (300ug/kg) or vehicle (sterile saline, SS, preservative-free 0.9% sodium chloride) by IV (bolus) injection as delineated in Table 2. An additional group was treated with PEGylated TPO Compound No. 1 both before (Day 0) and after (Day 8, t=1h) the carboplatin dose. All dosing was performed on a per-weight basis (100ul/10g body weight).\nOn Days 14, 18, 22 and 26, five mice in each test group were weighed and then euthanised using CO2-asphyxiation and exsanguination via cardiac puncture. The blood samples were transferred to separate EDTA (lavender-top) microcontainers for hematological evaluation. Groups of control mice (5) were processed on Days 14 and 26. The data are presented graphically as group means + SEM."}, "[3]": {"tested_on": "carboplatin-treated mice", "experiment": "Example 4: lower doses (30, 100, 300ug/kg) as survival factor for erythrocyte lineages in carboplatin-treated mice", "assay_type": "in vivo, BALB/c mouse", "conditions": "carboplatin alone; by Day 12", "description": "as §1\nThe ability of PEGylated TPO Compound No. 1 to function as a survival factor for megakaryocyte and erythrocyte lineages in carboplatin-treated mice as determined by changes in hematological parameters was observed. […] In this study, the effect of lower doses of PEGylated TPO Compound No. 1 (i.e., 30, 100 and 300ug/kg) on the survival of erythrocyte lineages was examined to characterize the dose-response for this effect.\n(§2) The groups of mice were treated with either carboplatin or vehicle (Phosphate Buffered Saline, PBS) by ip administration on Days -1 and 0 as delineated below. The optimal dose of carboplatin used to induce thrombocytopenia in the BALB/c mouse strain was previously determined to be a fractionated total dose of 120mg/kg given as two consecutive daily injections (i.e., 2x60mg/kg). Approximately one hour following the second dose of carboplatin, groups of mice were treated with PEGylated TPO Compound No. 1 or vehicle (sterile saline, SS, preservative-free 0.9% sodium chloride) by IV (bolus) injection as delineated in Table 4. The dose was administered on a per-weight basis (100ul/10g body weight).\n(§3) On Days 6, 8 and 12, five mice in each test group were weighed and then euthanised using CO2-asphyxiation and exsanguinations via cardiac puncture. The blood samples were transferred to separate EDTA (lavender-top) microcontainers for hematologic evaluation. Groups of control mice (5) were processed on Days 6 & 12."}, "[4]": {"tested_on": "mice treated with carboplatin", "experiment": "Example 3: dosing 1 hour, 1 day or 4 days after carboplatin, anemia in mice", "assay_type": "in vivo, BALB/c mouse", "conditions": "carboplatin alone; surviving mice (2 mice) by Day 12 compared to control groups", "description": "as §1\nThe effect of PEGylated TPO Compound No. 1 on the duration and severity of anemia following dosing regimens in which PEGylated TPO Compound No. 1 is administered at various times following the carboplatin treatment was observed. For this study, an amount of PEGylated TPO Compound No. 1 was administered to mice, one (1) hour, one (1) day or four (4) days following a carboplatin dose.\nThe groups of mice were treated with either carboplatin or vehicle (Phosphate Buffered Saline, PBS) by ip administration on Days -1 and 0 as delineated below. The optimal dose of carboplatin used to induce thrombocytopenia in the BALB/c mouse strain was previously determined to be a fractionated total dose of 120mg/kg given as two consecutive daily injections (i.e., 2x60mg/kg). One hour (Day 0), one day (Day 1) or four days (Day 4) following the second dose of carboplatin, groups of mice were treated with PEGylated TPO Compound No. 1 (300ug/kg) or vehicle (sterile saline, SS, preservative-free 0.9% sodium chloride) by IV (bolus) injection as delineated in Table 3. The dose was administered on a per-weight basis (100ul/10g body weight).\nas §3, with “8, 10 &” for “8 and”, “hematological” for “hematologic”, “12. The data are presented graphically as group means + SEM.” for “12.”"}, "[5]": {"tested_on": "mice treated with carboplatin", "experiment": "Example 1: dose response of PEGylated TPO Compound No. 1 given one day after carboplatin, anemia in mice", "assay_type": "in vivo, BALB/c mouse", "conditions": "carboplatin alone 2x60mg/kg ip; by Day 11", "description": "as §1\nThe effect of PEGylated TPO Compound No. 1 on the duration and severity of anemia following treatment of mice with carboplatin as determined by changes in hemoglobin levels, red blood cell count and hematocrit, was observed. For this study, increasing amounts of PEGylated TPO Compound No. 1 were administered to mice one day following a carboplatin dose to characterize a possible dose-dependent effect on various red blood cell parameters.\nas §2, with “intraperitoneal” for “ip”, “Days -2 and” for “Days”, “-1” for “-1 and 0”, “One day” for “Approximately one hour”, “1.” for “4.”\nOn Days 5, 7, 9 and 11, five mice in each test group were weighed and then euthanised using CO2-asphyxiation and exsanguinations via cardiac puncture. The blood samples were transferred to separate EDTA (lavender-top) microcontainers for hematologic evaluation. Groups of control mice (5) were processed on Days 5 and 11. The data are presented graphically as group means +SEM."}}}
{"smiles": "N.N.O=C([O-])C1(C(=O)[O-])CCC1.[Pt+2]", "note": "[carboplatin]", "values": [{"measurement": "mice that died between days 4 and 18", "setting": "[1]", "result": 7}, {"measurement": "lost body weight (average)", "setting": "[2]; between Days 7 and 26", "result": "approximately 4%"}, {"measurement": "decreases in hemoglobin levels, RBC counts and hematocrits", "setting": "[2]; by Days 18 and 22 compared to control groups", "result": "approx. 18%"}, {"measurement": "decrease in hemoglobin levels", "setting": "[3]", "result": "greater than 25%"}, {"measurement": "decreases in hemoglobin levels, RBC counts and hematocrits", "setting": "[4]", "result": "approx. 47%"}, {"measurement": "decrease in hemoglobin levels", "setting": "[5]", "result": "~20", "unit": "%"}]}
